Where two headings read alike, the source gives them in different places.
Molecular target: T1, Aspergillus niger B1 endo-β-glucosidase B1 (strain CMI CC 324626) preparation (Aspergillus niger, UniProt A2RAL4)
T1 sequence (A2RAL4 20-860): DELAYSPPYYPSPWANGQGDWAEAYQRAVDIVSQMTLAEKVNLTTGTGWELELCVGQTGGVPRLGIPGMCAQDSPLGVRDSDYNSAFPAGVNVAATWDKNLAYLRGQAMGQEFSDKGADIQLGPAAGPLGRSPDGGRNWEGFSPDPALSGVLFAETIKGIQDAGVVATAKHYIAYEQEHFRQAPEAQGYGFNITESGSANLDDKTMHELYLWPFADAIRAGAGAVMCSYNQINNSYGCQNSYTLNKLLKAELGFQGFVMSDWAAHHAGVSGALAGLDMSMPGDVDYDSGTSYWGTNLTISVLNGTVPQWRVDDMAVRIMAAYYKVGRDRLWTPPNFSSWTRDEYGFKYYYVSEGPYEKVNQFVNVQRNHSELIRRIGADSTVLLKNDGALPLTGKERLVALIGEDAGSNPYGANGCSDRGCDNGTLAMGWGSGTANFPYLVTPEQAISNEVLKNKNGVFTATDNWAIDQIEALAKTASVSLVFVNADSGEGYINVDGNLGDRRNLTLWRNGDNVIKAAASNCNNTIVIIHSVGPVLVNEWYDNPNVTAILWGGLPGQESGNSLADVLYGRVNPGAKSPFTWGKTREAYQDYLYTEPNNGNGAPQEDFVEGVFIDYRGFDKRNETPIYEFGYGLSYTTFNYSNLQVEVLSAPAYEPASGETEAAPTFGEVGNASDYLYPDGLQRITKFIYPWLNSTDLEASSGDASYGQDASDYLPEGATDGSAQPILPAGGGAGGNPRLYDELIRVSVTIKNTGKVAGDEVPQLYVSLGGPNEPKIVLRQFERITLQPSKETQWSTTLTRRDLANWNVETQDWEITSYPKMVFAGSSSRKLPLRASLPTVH
Assay: β-glucosidase kinetics and inhibition by standard procedures (PNPG or geranyl β rutinoside as substrates)
Assay type: biochemical, Aspergillus niger B1 strain CMI CC 324626
Details: remaining enzyme activity
Protocol: The concentrations of free and bound monoterpenes are preferably determined according to the method of Dimitriadis et. al. (Amer J. Enol. Vitic. 35:66-71 (1984) which reference is herein incorporated by reference). The activity of the endo-β-glucosidase of the present invention is preferably determined by standard methods using either PNPG or geranyl beta rutinoside as substrates.
The β-glucosidase activity was assayed by incubating 25 µl of enzyme preparation in 1 ml of 1 mM PNPG (p-nitrophenyl-β-D-glucopyranoside) for 2 minutes at 35°. The reaction was terminated by adding 200 µl of 1M Na2CO3 and the OD was read at 399 nm.
The supernatant and the filtered samples were then separately incubated with 20 ml of 1 mg/l of wine glycosides for 20 hours at 30°. Free monoterpenes were then analyzed according to Dimitriadis et al. (Amer J. Enol. Vitic. 35:66-71 (1984)). Characterization of the A. niger B1 β-glucosidase B1 activity included the determination of pH, ionic strength, temperature, and ethanol response curves, Km, Vmax and Ki for glucose, by standard procedures. In addition, the effect of various concentrations of grape juice (Muscat of Alexandria) sucrose, fructose and SO2 on the enzyme activity was determined by conventional methods. […]

For `O=C(CO)[C@@H](O)[C@H](O)[C@H](O)CO` [Fructose, fructose], the activity at 1 M (1M Fructose, read-out: Activity in the presence of 1M Fructose) was 90%.
Work on `OC[C@H]1O[C@@](CO)(O[C@H]2O[C@H](CO)[C@@H](O)[C@H](O)[C@H]2O)[C@@H](O)[C@@H]1O` [sucrose] yielded an activity at 1 M (1M sucrose, read-out: Activity in the presence of 1M sucrose) of 90%.
For SO2, the “Activity in the presence of 200ppm SO2” value (200ppm SO2) was 100%.

— patent EP0307071B1, “Flavor and fragrance enhancing enzymes” (YISSUM RESEARCH DEVELOPMENT COMPANY OF THE HEBREW …, priority 1987, dated 1989)
